Assay results: publication PMC5518475 (Bioorganic & medicinal chemistry letters, 2017)

How the values were obtained:
hM4 = biological target: T1, hM4 (Homo sapiens, UniProt P08173); assay type: cell-based; settings: for hM4 pEC50 (±SEM): hM4/Gqi5-CHO cells, EC20 fixed concentration of acetylcholine, mean of n=3
T1 sequence (P08173 1-479): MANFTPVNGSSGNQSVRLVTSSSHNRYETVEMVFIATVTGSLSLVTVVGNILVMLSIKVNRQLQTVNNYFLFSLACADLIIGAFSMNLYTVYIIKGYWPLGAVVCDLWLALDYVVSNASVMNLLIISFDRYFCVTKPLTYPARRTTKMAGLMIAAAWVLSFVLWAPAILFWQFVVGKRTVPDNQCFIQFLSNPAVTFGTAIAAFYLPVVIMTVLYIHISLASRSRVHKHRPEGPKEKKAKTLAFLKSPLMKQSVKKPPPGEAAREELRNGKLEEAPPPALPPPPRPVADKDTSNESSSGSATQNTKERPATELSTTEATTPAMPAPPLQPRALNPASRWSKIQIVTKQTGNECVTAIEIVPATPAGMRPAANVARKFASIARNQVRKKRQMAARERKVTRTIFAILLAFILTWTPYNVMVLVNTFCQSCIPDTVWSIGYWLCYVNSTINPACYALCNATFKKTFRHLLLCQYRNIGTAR

[1] = Predicted hepatic clearance from rat hepatic microsomal CLint; assay type: in vitro ADME; settings: based on hepatic microsomal CLint
[2] = Predicted hepatic clearance from human hepatic microsomal CLint; assay type: in vitro ADME; settings: based on hepatic microsomal CLint
Rat in vivo PK = settings: rat in vivo PK studies
human P-gp = human P-gp (Homo sapiens, UniProt P08183); assay: P-gp efflux in MDCK-MDR1 cells; assay type: in vitro ADME
human P-gp, sequence (P08183 whole entry): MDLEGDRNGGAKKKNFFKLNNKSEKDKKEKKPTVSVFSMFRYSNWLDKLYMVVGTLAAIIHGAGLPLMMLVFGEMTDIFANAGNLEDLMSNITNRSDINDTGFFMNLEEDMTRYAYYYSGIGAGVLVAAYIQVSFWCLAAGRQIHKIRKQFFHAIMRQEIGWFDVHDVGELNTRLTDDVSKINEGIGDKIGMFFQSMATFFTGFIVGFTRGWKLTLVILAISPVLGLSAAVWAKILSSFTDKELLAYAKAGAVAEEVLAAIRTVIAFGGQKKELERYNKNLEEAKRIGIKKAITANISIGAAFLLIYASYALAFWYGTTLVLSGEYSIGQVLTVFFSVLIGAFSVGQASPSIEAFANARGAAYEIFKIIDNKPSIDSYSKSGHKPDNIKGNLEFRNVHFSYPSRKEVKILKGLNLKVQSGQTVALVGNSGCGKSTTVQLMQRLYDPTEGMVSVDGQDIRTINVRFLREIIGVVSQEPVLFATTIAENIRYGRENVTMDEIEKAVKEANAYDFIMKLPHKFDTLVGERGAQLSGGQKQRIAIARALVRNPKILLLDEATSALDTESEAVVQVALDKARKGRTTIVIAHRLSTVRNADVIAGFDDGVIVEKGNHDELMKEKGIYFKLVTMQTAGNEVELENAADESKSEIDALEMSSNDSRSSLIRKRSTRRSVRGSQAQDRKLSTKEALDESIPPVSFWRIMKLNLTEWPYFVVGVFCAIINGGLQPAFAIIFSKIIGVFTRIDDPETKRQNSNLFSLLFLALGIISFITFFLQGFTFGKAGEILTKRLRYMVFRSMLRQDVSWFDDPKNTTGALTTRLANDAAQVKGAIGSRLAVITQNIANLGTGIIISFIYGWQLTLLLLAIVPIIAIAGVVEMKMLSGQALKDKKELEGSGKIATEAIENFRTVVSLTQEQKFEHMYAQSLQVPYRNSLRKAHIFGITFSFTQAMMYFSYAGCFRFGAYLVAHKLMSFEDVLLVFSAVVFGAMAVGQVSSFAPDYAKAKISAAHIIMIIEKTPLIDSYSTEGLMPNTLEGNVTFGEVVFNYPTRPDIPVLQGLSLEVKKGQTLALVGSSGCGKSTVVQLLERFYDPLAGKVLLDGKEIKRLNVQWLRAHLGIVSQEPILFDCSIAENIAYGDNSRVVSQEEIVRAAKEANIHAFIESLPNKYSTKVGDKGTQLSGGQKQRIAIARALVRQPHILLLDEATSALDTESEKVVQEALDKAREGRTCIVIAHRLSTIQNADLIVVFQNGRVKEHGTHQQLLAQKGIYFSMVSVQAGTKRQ

Predicted human PK = settings: based on moderate and small predicted CL and Vss
cynomolgus monkey M4 = cynomolgus monkey M4 (Macaca fascicularis, UniProt G7PQB4); assay: ACh CRC fold-shift experiments; assay type: cell-based; settings: operational model
Dog in vivo PK = settings: female, mongrel, plasma, iv
human M4 = biological target: T2, human M4 (Homo sapiens, UniProt P08173); assay: ACh CRC fold-shift experiments; assay type: cell-based; settings: operational model
T2 sequence (P08173 1-479): T1 sequence (P08173 1-479)

CYP450 = CYP450 time-dependent inhibition; assay type: in vitro ADME

Structure (SMILES): Cc1nnc2sc(C(=O)NC3CN(c4nc5cccnc5s4)C3)c(N)c2c1C [Compound 16c]
- hM4 pEC50 (±SEM) (hM4): 7.04±0.16
- predicted CLhep [1]: 41 mL/min/kg
- predicted CLhep [2]: 12 mL/min/kg

Structure (SMILES): Cc1nnc2sc(C(=O)NC3CN(c4ccnc(Cl)c4)C3)c(N)c2c1C [Compound 16n]
- hM4 pEC50 (±SEM) (hM4): 6.80±0.19

Structure (SMILES): COc1cc(N2CC(NC(=O)c3sc4nnc(C)c(C)c4c3N)C2)ccn1 [Compound 16o]
- rat in vivo PK finding on metabolism (Rat in vivo PK): evidence for extrahepatic non-CYP450 metabolism

Structure (SMILES): Cc1nnc2sc(C(=O)NC3CN(c4nc5ccccc5o4)C3)c(N)c2c1C [Compound 16b]
- hM4 pEC50 (±SEM) (hM4): 6.45±0.19

Structure (SMILES): Cc1nnc2sc(C(=O)NC3CN(c4ccncn4)C3)c(N)c2c1C [Compound 16h]
- hM4 pEC50 (±SEM) (hM4): 7.48±0.17

Structure (SMILES): Cc1nnc2sc(C(=O)NC3CN(c4ccc(S(=O)(=O)C(F)F)cc4)C3)c(N)c2c1C [Compound 17g]
- weaker hM4 activity compared to that of 17j (hM4): ~40 fold
- hM4 pEC50 (±SEM) (hM4): 6.63±0.29

Structure (SMILES): Cc1nnc2sc(C(=O)NC3CN(c4cccnc4)C3)c(N)c2c1C [Compound 16e]
- human P-gp efflux substrate (human P-gp): substrates for human P-gp efflux

Structure (SMILES): Cc1nnc2sc(C(=O)NC3CN(c4ccc(F)cc4F)C3)c(N)c2c1C [Compound 17h]
- hM4 pEC50 (±SEM) (hM4): 7.49±0.12

Structure (SMILES): Cc1nnc2sc(C(=O)NC3CN(c4ccncc4Cl)C3)c(N)c2c1C [Compound 16p]
- rat in vivo PK finding on metabolism (Rat in vivo PK): evidence for extrahepatic non-CYP450 metabolism

Structure (SMILES): Cc1nnc2sc(C(=O)NC3CN(c4cccc(F)c4F)C3)c(N)c2c1C [Compound 17j]
- predicted human t1/2 (Predicted human PK): 1 to 2 h
- Ames test result (Ames test): no evidence of mutagenesis
- cynomolgus monkey M4 αβ (cynomolgus monkey M4): 120
- clearance (Dog in vivo PK): 17 mL/min/kg
- human M4 αβ (human M4): 380
- time-dependent CYP450 inhibition (CYP450): no evidence for time-dependent inhibition

Structure (SMILES): Cc1cccc(OC(=O)N2CC(NC(=O)c3sc4nnc(C)c(C)c4c3N)C2)c1 [Compound 6c]
- hM4 pEC50 (±SEM) (hM4): 7.23±0.17

Structure (SMILES): Cc1nnc2sc(C(=O)NC3CN(C(=O)OCc4ccccc4)C3)c(N)c2c1C [Compound 6a]
- hM4 pEC50 (±SEM) (hM4): 7.62±0.19

Structure (SMILES): Cc1nnc2sc(C(=O)NC3CN(c4ccccn4)C3)c(N)c2c1C [Compound 16d]
- hM4 pEC50 (±SEM) (hM4): 6.99±0.18

Structure (SMILES): Cc1nnc2sc(C(=O)NC3CN(c4cccnc4F)C3)c(N)c2c1C [Compound 16i]
- human P-gp efflux substrate (human P-gp): substrates for human P-gp efflux
- hM4 pEC50 (±SEM) (hM4): 7.74±0.22

Structure (SMILES): Cc1nnc2sc(C(=O)NC3CN(C(=O)c4ccccc4)C3)c(N)c2c1C [Compound 6f]
- hM4 pEC50 (±SEM) (hM4): 6.22±0.25

Structure (SMILES): Cc1nnc2sc(C(=O)NC3CN(c4ccc(C(F)(F)F)nc4)C3)c(N)c2c1C [Compound 16j]
- predicted CLhep [1]: 18 mL/min/kg
- predicted CLhep [2]: 5.6 mL/min/kg

Structure (SMILES): Cc1nnc2sc(C(=O)NC3CN(c4ccc(S(=O)(=O)C(F)(F)F)cc4)C3)c(N)c2c1C [Compound 17f]
- weaker hM4 activity compared to that of 17j (hM4): ~ 10 fold

Structure (SMILES): Cc1nnc2sc(C(=O)NC3CN(c4cc(F)nc(F)c4)C3)c(N)c2c1C [Compound 16q]
- human P-gp efflux substrate (human P-gp): substrates for human P-gp efflux
